Patent US20090208583A1, “TABLETS COMPRISING CANDESARTAN CILEXETIL” (Siegfried Generics International AG, priority 2006, published 2009)
Where a name gives a salt, the structure may show the parent alone.

How the values were obtained:
[1] = Storage stability of Example 1 tablets, contamination profile (HPLC peak area); conditions: for result with further compounds having a stabilizing action (in words): used instead of triethyl citrate and simethicone, analogously to the preceding examples
[2] = Storage stability of tablets of Examples 2 to 5, amended HPLC method; assay type: physicochemical; conditions: tablets of Examples 2 to 5, 50° C., 2 weeks
Excerpt: Example 1 was repeated, but with the compounds and concentrations stated in Table 2. Triethyl citrate was applied to a mixture of the active compound, lactose and maize starch, the mixture was granulated with an aqueous solution of hydroxypropylcellulose, the granules were worked up with the additives listed in Table 2 to give the finished end mixture and this mixture was pressed to tablets with a rotary tablet press (Fette P1). Tablets with two different pressing pressures, or two different hardnesses (50 N and 80 N) were prepared and were stored in open brown glass containers at 50° C. for at least two weeks. At the same time, the end mixture which had not been subjected to pressure was stored at 4° C. in closed brown glass containers for the same period of time as a reference sample for comparison.
The tablets from Examples […], 3, 4 and 5 were investigated with an amended HPLC method, which led to other retention times. In this, the peaks correspond to the following compounds:
Peak at 1.7-1.8 min=desethyl-candesartan cilexetil Peak at 3.8-3.9 min=candesartan cilexetil Peak at 9.1-9.2 min=N-ethyl-candesartan cilexetil

SMILES	result with further compounds having a stabilizing action (in words) [1]	stabilizing action for candesartan cilexetil tablets during storage (in words) ([1]; Example 1 tablets, 50° C., two weeks)	stabilizing action (in words) [2]
CCCCOC(=O)CCCCCCCCC(=O)OCCCC [dibutyl sebacate]	Analogous results		
COC(=O)CC(O)(CC(=O)OC)C(=O)OC [trimethyl citrate]	Analogous results		
CCOC(=O)c1ccccc1C(=O)OCC [diethyl phthalate]	Analogous results		
CCOC(=O)CC(O)(CC(=O)OCC)C(=O)OCC [triethyl citrate]		stabilizing action	stabilizing action
CCCCOC(=O)CC(O)(CC(=O)OCCCC)C(=O)OCCCC [tributyl citrate]	Analogous results		
COC(=O)c1ccccc1C(=O)OC [dimethyl phthalate]	Analogous results		
